Data as given in patent US20090263381A1, “COMBINATION OF DEHYDROEPIANDROSTERONE OR DEHYDROEPIANDROSTERONE-SULFATE WITH AN ANTI-IGE ANTIBODY FOR TREATMENT OF ASTHMA OR CHRONIC OBSTRUCTIVE PULMONARY DISEASE” (priority 2003, published 2009).
Where “and” joins values, the source holds several entries; their conditions need not be identical. Equal values may be shown once. Read-outs that look alike come from different tables or passages of the source.

Legend:
[1] = Particle size of jet-milled and spray-dried anhydrous DHEA-S (Malvern Mastersizer X, light microscope); type: physicochemical; details: spray dried material, two batches
Protocol: Approximately 1 g sample was passed through the jet mill, once, and approximately 2 g sample were passed through the jet mill twice. […] The resulting solution was sonicated for 3 minutes and appeared fully dispersed. The dispersed solutions were tested on a Malvern Mastersizer X with a small volume sampler (SVS) attachment. One sample of dispersed material was tested 5 times. The median particle size or D (v, 0.5) of unmilled material was 52.56 μm and the % RSD (relative standard deviation) was 7.61 for the 5 values. The D (v, 0.5) for a single pass through the jet mill was 3.90 μm and the % RSD was 1.27, and the D (v, 0.5) from a double pass through the jet mill 3.25 μm and the % RSD was 3.10.
The solution was spray-dried with a B-191 Mini Spray-Drier (Buchi, Flawil, Switzerland) with an inlet temperature of 55° C., outlet temperature of 40° C., at 100% aspirator, at 10% pump, nitrogen flow at 40 mbar and spray flow at 600 units. The spray-dried product was suspended in hexane and Span85 surfactant added to reduce agglomeration. The dispersions were sonicated with cooling for 3-5 minutes for complete dispersion and the dispersed solutions tested on a Malvern Mastersizer X with a Small Volume Sampler (SVS) attachment. […] Visual examination by light microscope of the dispersions of each batch confirmed that spray drying produced small respirable size particles. […]

[2] = Nakagawa et al. 1981, 1982; cited from earlier work
[3] = Solid-state stability with and without lactose (DHEA formation by HPLC); type: physicochemical; details: 1 week at 50° C., neat and lactose blend
Description: These conditions were used to stress the formulation in order to predict its long-term stability results. […] The primary degradant is DHEA. […] The materials on accelerated storage become more cohesive with time as evidenced by clumping during sample weighing for chemical analysis. […] This is a considerable disadvantage since lactose is the most commonly used inhalation excipient for dry powder formulations. Continuing with the virtually anhydrous form would mean limiting formulations to neat powder or undertaking more comprehensive safety studies to use a novel excipient.

Intracellular adenosine = assay: In vivo effect on adenosine levels in various rat tissues; parameters: species or system Fischer 344 rats
Protocol: Folinic acid (50 mg/kg) was administered intraperitoneally once daily for fourteen days. […] Hearts were removed from animals and flash frozen in liquid nitrogen with 10 s of death. Liver and lungs were removed en bloc and flash frozen with […]. Brain tissue was subsequently dissected.

HT-29 SF cells [4] = assay: DHEA effect on cell growth (Coulter counter); type: cell-based, human
HT-29 SF cells [5] = assay: DHEA effect on cell cycle distribution (flow cytometry); type: cell-based, human; details: 25, 50 or 200 μM DHEA; 24, 48, 72 hours
Protocol: Cells were plated at 10^5/60-mm dish in duplicate. […] Cultures were trypsinized following 0, 24, 48, or 74 hours and fixed and stained using a modification of a procedure of Bauer et al., Cancer Res. 46, 3173-3178 (1986). Briefly, cells were collected by centrifugation and resuspended in cold phosphate-buffered saline. Cells were fixed in 70% ethanol, washed, and resuspended in phosphate-buffered saline.
After 24, 48, and 72 hours, cells were harvested, fixed in ethanol, and stained with propidium iodide, and the DNA content/cell was determined by flow cytometric analysis. The percentage of cells in G1, S, and G2M phases was calculated using the Cellfit cell cycle analysis program. S phase is marked by a quadrangle for clarity. Representative histograms from duplicate determinations are shown. The experiment was repeated three times.

HT-29 SF cells [6] = assay: Reversal of DHEA effect on cell cycle by medium supplements; type: cell-based, human; details: 25 FM DHEA, with increasing exposure time
late asthmatic response = assay: Late asthmatic response in patients dosed with DHEA-S; type: in vivo; details: patients after five days of dosing
[7] = HPLC analysis of drug degradation during jet milling; type: physicochemical; details: HPLC peak area versus unmilled standard; single-pass and double-pass
Protocol: Two vials (A; single-pass; 150 mg) and (B double-pass; 600 mg) of the micronized drug were available for determining drug degradation during jet milling micronization. […] The chromatographic peak area for the HPLC assay of the unmilled drug standard solution (10 mg/ml) gave a value of 23,427. […] The chromatographic peak areas for vials A and B were 11,979 and 11,677, respectively.

[8] = Short-term solution stability of DHEA-S formulation; type: physicochemical
Protocol: Aliquots of this solution are filled into clear glass vials and stored at RT (24-26° C.) and at 40° C. The samples are checked daily for DHEA-S content, DHEA content, and appearance. For each time point, duplicate samples are withdrawn and diluted from each vial. […] The study is stopped on day three. […] The solution should easily be stable for the day of reconstitution in a clinical trial. The following section describes the aerosol properties of this formulation.

[9] = for solubility: range of triplicates
Description: The suspensions are then filtered through a 0.2 micron syringe filter and immediately diluted for HPLC analysis. To prepare refrigerated samples, the syringes and filters are stored in the refrigerator for at least one hour before use.

[10] = 0.12% NaCl (20 mM Cl^-)
Protocol: The nebulizer is filled with 5 mL of solution and nebulization is continued until the output became visually insignificant (4½ to 5 min.). Nebulizer solutions are tested using a California Instruments AS-6 6-stage impactor with a USP throat. The impactor is run at 30 L/min for 8 s to collect a sample following one minute of nebulization time. At all other times during the experiment, the aerosol is drawn through the by-pass collector at approximately 33 L/min. The collection apparatus, nebulizer, and impactor are rinsed with mobile phase and assayed by HPLC. […] This volume is selected as the practical upper limit for use in a clinical study.

Compound: C[C@]12CC[C@H](OS(=O)(=O)[O-])CC1=CC[C@@H]1[C@@H]2CC[C@]2(C)C(=O)CC[C@@H]12.[Na+] [Anhydrous DHEA-S]
- mean particle size (Malvern Mastersizer X) [1]: 5.07±0.70 μm and 6.66±0.91 μm
- mean particle size (light microscope) [1]: 2.4 μm and 2.0 μm
- solid-state properties (in words) [2]: low crystallinity and is very hygroscopic

Compound: CC12CCC3C(CC=C4CC(OS(=O)(=O)[O-])CCC43C)C1CCC2=O.[Na+] (stereo not drawn) [DHEA-S dihydrate]
- DHEA generated on storage (in words) [3]: virtually no DHEA generated

Compound: Nc1nc(=O)c2c([nH]1)NCC(CNc1ccc(C(=O)N[C@@H](CCC(=O)O)C(=O)O)cc1)N2C=O (mixture of isomers) [Folinic Acid, Folinic acid]
- effect on adenosine levels when administered alone (Intracellular adenosine; rats, folinic acid 50 mg/kg alone, all organs studied): increase in adenosine levels for all organs studied
- effect of coadministration on steroid-mediated adenosine depletion (Intracellular adenosine; rats, folinic acid 50 mg/kg coadministered with DHEA or methyltestosterone): completely abrogated steroid-mediated adenosine depletion

Compound: C[C@]12CC[C@H](O)CC1=CC[C@@H]1[C@@H]2CC[C@]2(C)C(=O)CC[C@@H]12 [DHEA, 3β-hydroxyandrost-5-en-17-one]
- effect on tissue adenosine (in words) (Intracellular adenosine; rat, in vivo): multi-organ depletion of adenosine
- effect on growth of HT-29 cells (in words) (HT-29 SF cells [4]; 0-200 μM, 0-72 hours): time- and dose-dependent inhibition of growth
- exposure time after which cell number was reduced compared to controls (HT-29 SF cells [4]; 12.5 μM DHEA): 72 h
- exposure time after which cell number was reduced compared to controls (HT-29 SF cells [4]; 25 μM DHEA): 48 h
- exposure time after which cell number was reduced compared to controls (HT-29 SF cells [4]; 50 μM DHEA): 48 h
- exposure time after which cell number was reduced compared to controls (HT-29 SF cells [4]; 200 μM DHEA): 24 h
- cell cycle effect (overall, in words) (HT-29 SF cells [5]): G1 block in HT-29 SF cells in a time- and dose-dependent manner
- proportion of cells in S phase (HT-29 SF cells [6]): progressively reduced the proportion of cells in S phase

Compound: sodium dehydroepiandrostenone sulfate [DHEA-S]
- reduction of the late asthmatic response (late asthmatic response): 33%
- degradation of the drug during jet milling micronization [7]: no detectable degradation
- stability of nebulizer formulation ([8]; 7.5 mg/mL of DHEA-S in 0.12% NaCl): stable for at least one day at RT
- appearance of solution on storage ([8]; 10 mg/mL in 0.12% NaCl, 40° C. (accelerated condition)): became cloudy after two days of storage
- solubility ([9]; 0.9% NaCl, refrigerated (7-8° C.)): 1.1 to 1.3 mg/mL
- Ksp ([9]; 15° C., interpolated versus reciprocal of absolute temperature): ~1316 mM^2
- equilibrium constant Ksp ([9]; refrigerated (7-8° C.), slope of solubility versus reciprocal sodium cation concentration): 665 mM^2
- solubility ([9]; ~25° C., 0% NaCl): 16.5 to 17.4 mg/mL
- highest solution concentration that will not precipitate during nebulization [10]: approximately 7.5 mg/mL
- solid-state properties (in words) [2]: most stable and crystalline as the dihydrate form
